Each block holds one compound with its values, some of them ahead of it.
What was measured:
[1] = Biochemical parameters in blood, mice with S-180 tumor cells; assay type: in vivo, Swiss mice; conditions: mice with S-180 tumor cells, 25 mg/kg/day i.p., 7 days
Procedure: (§1) Body weights (n = 10 mice/group) were determined at the first and last days of treatment. Organ weight alterations (n = 10 mice/group), and hematological and biochemical analysis (n = 5 mice/group) were performed on the last day of experimentation. All systemic toxicological analyses were also performed with 4 healthy animal groups, without the inoculation of S-180, (n = 5 mice/group) treated with 5% DMSO (i.p.), 5-FU 25 mg/Kg/day (i.p.), perillaldehyde 8,9-epoxide 100 mg/kg/day (i.p.) and perillaldehyde 8,9-epoxide 200 mg/kg/day for consecutive 7 days.
(§2) Twenty four hours after the seventh treatment day, blood samples of the animals were collected (retro-orbital plexus) with anesthetized mice (1.5%, isoflurane). Immediately after blood collection the animals were euthanized, and their organs (liver, spleen and kidneys) were removed and weighed. The wet mass of each organ was expressed as grams per 100 grams of body mass and compared to the negative control group.
(§3) For evaluation of the effect of perillaldehyde 8,9-epoxide on the biochemical parameters aspartate aminotransferase (AST) and alanine aminotransferase (ALT) enzymatic to investigate liver function alterations, creatinine and urea were measured as renal function parameters. For this test, blood samples of the animals were collected without anticoagulant, centrifuged for 10 min at 3500 rpm and 25 °C to obtain […].
(§4) The Clinical Chemistry® kits (Abbott Architect; C8000; Abbott Laboratories, Wiesbaden, Germany) were used for biochemical evaluation of serum samples.

[2] = Biochemical parameters in blood, healthy mice; assay type: in vivo, Swiss mice; conditions: 25 mg/kg/day i.p., 7 days
Procedure: as §1, §2, §3, §4

[3] = Body and organ weights, mice transplanted with S-180 tumor cells; assay type: in vivo, Swiss mice; conditions: mice with tumor S-180, 25 mg/kg/day i.p., 7 days
Procedure: as §1, §2

[4] = system: sarcoma 180 tumor cells (S-180); assay: In vivo antitumor activity assay, sarcoma 180 tumor growth in mice; set-up: species or system Swiss mice; conditions: 7 consecutive days
Procedure: Sarcoma 180 (S-180) tumor cells, were obtained through at the Federal University of Ceará, Brazil and maintained in the abdominal cavities of Swiss mice in their ascitic form by ten days.
The effect on tumor growth in vivo was assessed using S-180 ascites tumor cells, according standard protocol. Ten-day-old S-180 ascites tumor cells (2 × 10^6 cells per 0.5 mL) were inoculated subcutaneously into the right axillary region of animals. After 24 h, the animals were separated into 5 groups (n = 10 mice/group) and subjected to intraperitoneal (i.p.) treatment for 7 consecutive days (once a day). Group 1 consisted of animals treated by intraperitoneal (i.p.) administration of negative control—5% Dimethyl sulfoxide (DMSO); Group 2 consisted of animals treated by i.p. administration of positive control—5-fluorouracil 25 mg/kg/day (5-FU; purity > 99%; Sigma Chemical Co., St. Louis, MO, USA); Group 3 consisted of animals treated by i.p. administration of perillaldehyde 8,9-epoxide at 100 mg/kg/day; Group 4 consisted of animals treated by i.p. administration of perillaldehyde 8,9-epoxide at 200 mg/kg/day; Group 5 consisted of animals treated by i.p. administration of perillyl alcohol at 100 mg/kg/day; Group 6 consisted of animals treated by i.p. administration of perillyl alcohol at 200 mg/kg/day. At 24 h from the last day of treatment, under 1.5% isoflurane inhalation anesthesia, the mice were euthanized, and the tumors were weighed. The inhibition ratio of tumor growth (%) was calculated by the following equation: (%) = [(NC − TG)/NC] × 100, where NC is the average tumor weight of the negative control group and TG is the average tumor weight of the treated group.

[5] = Hematological parameters in blood, healthy mice; assay type: in vivo, Swiss mice; conditions: 25 mg/kg/day i.p., 7 days
Procedure: as §1, §2
(§5) For hematological analyses, an aliquot of blood from each animal was placed in ethylene diamine tetracetic acid (EDTA). Hematological parameters, including the total as well as differential counts of leukocytes, including eosinophils, lymphocytes, neutrophils and monocytes determined by standard manual procedures using optical light microscopy.

[6] = Histopathological and macroscopic analyses of livers, kidneys and spleens; assay type: in vivo, Swiss mice; conditions: 25 mg/kg/day i.p., 7 days
Procedure: After being weighed and fixed in 10% formaldehyde; tumors, livers, spleens, and kidneys were submitted for assessment macroscopic (size, coloration and hemorrhage), were cut into small pieces and, after that dehydrated in alcohol, diaphanized in xylene and paraffin-embedded. Subsequently, 5-µm-thick histological sections were obtained and stained with hematoxylin and eosin. Histological analyses were performed by light microscopy in order to assess possible damage caused by treatment.

[7] = Body and organ weights, healthy mice; assay type: in vivo, Swiss mice; conditions: 25 mg/kg/day i.p., 7 days
Procedure: as §1, §2

[8] = Hematological parameters in blood, mice with S-180 tumor; assay type: in vivo, Swiss mice; conditions: mice with S-180 tumor, 25 mg/kg/day i.p., 7 days
Procedure: as §1, §2, §5

Creatinine [1]: 0.28 ± 0.09 mg/dL | Urea [1]: 50.71 ± 2.18 mg/dL | Creatinine [2]: 0.37 ± 0.02 mg/dL | Urea [2]: 49.00 ± 5.86 mg/dL | Kidney [3]: 1.15 ± 0.04 g/100 g Body Mass | Liver [3]: 4.99 ± 0.16 g/100 g Body Mass | Spleen [3]: 0.33 ± 0.02 g/100 g Body Mass | Variation Body in Mass [3]: -4.46 ± 0.83 g | Differential Count of Leukocytes, Eosinophil [5]: 0% | Differential Count of Leukocytes, Lymphocyte [5]: 95.8 ± 0.70 % | Differential Count of Leukocytes, Monocyte [5]: 1.2 ± 0.70% | Differential Count of Leukocytes, Neutrophil [5]: 3.0 ± 0.70 % | Total Leukocytes [5]: 2.37 ± 0.77 * 10^3 Cells/µL | macroscopic observation of the spleens [6]: Visible atrophy | Kidney [7]: 1.13 ± 0.03 g/100 g Body Mass | Liver [7]: 4.65 ± 0.21 g/100 g Body Mass | Spleen [7]: 0.19 ± 0.02 g/100 g Body Mass | Variation Body in Mass [7]: -3.50 ± 0.66 g | Differential Count of Leukocytes, Eosinophil [8]: 0% | Differential Count of Leukocytes, Lymphocyte [8]: 89.0 ± 0.70 % | Differential Count of Leukocytes, Monocyte [8]: 0.8 ± 0.37% | Differential Count of Leukocytes, Neutrophil [8]: 10.2 ± 0.54 % | Total Leukocytes [8]: 2.50 ± 0.32 ^# 10^3 Cells/µL
Compound: O=c1[nH]cc(F)c(=O)[nH]1 [5-FU, 5-fluorouracil, reference compound]
ALT [1]: 42.8 ± 0.6 U/L | AST [1]: 164.4 ± 10.0 U/L | ALT [2]: 47.25 ± 2.8 U/L | AST [2]: 102.0 ± 15.06 U/L | tumor growth inhibition rate ([4]; 25 mg/kg/day i.p.): 68.1% | mean tumor mass ([4]; 25 mg/kg/day i.p., 24 h after last treatment, NC 1.18 ± 0.07 g): 0.36 ± 0.02 g

Compound: C=C(C)[C@@H]1CC=C(CO)CC1 [perillyl alcohol, (S)-(−)-perillyl alcohol]
tumor growth inhibition rate ([4]; 100 mg/kg/day i.p.): 35.3% | tumor growth inhibition rate ([4]; 200 mg/kg/day i.p.): 45.4%
